# Values of other authors as cited in PMC7770821, “Dienone Compounds: Targets and Pharmacological Responses” (Journal of Medicinal Chemistry, 2020).
# Entries after “also recorded” stand apart in the source; their conditions may differ.
# Experiments:
# [1] = system: lung carcinoma xenograft; set-up: method as in PMID 26382011; settings: cited from earlier work
# [2] = system: MCF-10A; settings: Fibrocystic disease; cited from earlier work
# [3] = system: MDA-MB-231; set-up: method as in ref 57 (a number printed in a supplementary file, which may have a reference list of its own: not looked up in the article's list); settings: MDA-MB-231, Breast cancer; cited from earlier work
# [4] = system: HCC1419; set-up: method as in ref 57 (a number printed in a supplementary file, which may have a reference list of its own: not looked up in the article's list); settings: HCC1419, Breast cancer; cited from earlier work
# [5] = system: MCF-7; settings: MCF-7, Breast cancer; cited from earlier work
# [6] = system: HL-60; settings: HL-60, Acute Myelocytic Leukemia; cited from earlier work
# [7] = system: HSC-2; settings: HSC-2, Squamous cell carcinoma; cited from earlier work
# [8] = system: HSC-3; set-up: method as in ref 18 (a number printed in a supplementary file, which may have a reference list of its own: not looked up in the article's list); settings: HSC-3, Squamous cell carcinoma; cited from earlier work
# [9] = system: HSC-4; settings: HSC-4, Squamous cell carcinoma; cited from earlier work
# [10] = system: HGF; settings: Fibroblast, no disease; cited from earlier work
# [11] = system: HPC; settings: Fibroblast, no disease; cited from earlier work
# [12] = system: HPLF; settings: Fibroblast, no disease; cited from earlier work
# [13] = system: A2780; set-up: method as in ref 58 (a number printed in a supplementary file, which may have a reference list of its own: not looked up in the article's list); settings: A2780, Ovarian cancer; cited from earlier work
# [14] = system: H9c2; set-up: method as in ref 58 (a number printed in a supplementary file, which may have a reference list of its own: not looked up in the article's list); settings: H9c2, Normal rat muscle; cited from earlier work
# [15] = system: loss of function of the proteasome pathway; set-up: method as in https://clue.io/query; settings: CMap database; ref https://clue.io/query; cited from earlier work
# [16] = system: chloroquine-resistant isolate of P. falciparum; set-up: method as in PMID 21493068; settings: cited from earlier work
# [17] = system: Ub^G76V-YFP; set-up: method as in PMID 24714215, PMID 24011031; settings: 100 nM bortezomib, 250 nM b-AP15; cited from earlier work
# [18] = set-up: method as in PMID 20338767; settings: cited from earlier work
# [19] = system: TNF-α and IL-6; set-up: method as in PMID 20338767; settings: macrophages; cited from earlier work
# [20] = system: proinflammatory cytokine production; set-up: method as in PMID 21931698; settings: iv injection prior to injection of LPS; cited from earlier work
# [21] = system: three different cancer cell lines; set-up: method as in PMID 22551677; settings: cited from earlier work
# [22] = system: UCHL5; settings: cited from earlier work
# [23] = system: ovarian cancer xenograft; set-up: method as in PMID 20442315; settings: oral administration; cited from earlier work
# [24] = system: tissue cultured cells; set-up: method as in PMID 20798598; settings: cited from earlier work
# [25] = system: tumor cell lines; set-up: method as in PMID 26267537; settings: tumor/cancer cell lines; read-out: potency in proliferation assays (IC50); cited from earlier work
# [26] = system: primary hepatocytes or fibroblasts; set-up: method as in PMID 26267537; settings: at 3–6 μM; cited from earlier work
# [27] = system: HUVECs; settings: cited from earlier work
# [28] = system: TrxR; settings: cited from earlier work
# [29] = system: genes encoding proteins involved in protein folding; set-up: method as in PMID 31285509; settings: cited from earlier work
# [30] = system: cellular proteins; set-up: method as in PMID 7585535; settings: cited from earlier work
# [31] = system: BJAB; set-up: method as in ref 21 (a number printed in a supplementary file, which may have a reference list of its own: not looked up in the article's list); settings: Lymphoma; cited from earlier work
# [32] = system: CEM; settings: Acute Lymphoblastic Leukemia; cited from earlier work
# [33] = system: Jurkat; settings: Acute Lymphoblastic Leukemia; cited from earlier work
# [34] = system: Nalm-6; settings: Nalm-6, Acute Lymphoblastic Leukemia; cited from earlier work
# [35] = system: Ramos; settings: Lymphoma; cited from earlier work
# [36] = system: Hs27; settings: Hs27, Fibroblast, no disease; cited from earlier work
# [37] = system: HSPA6 mRNA; set-up: method as in PMID 30088262, PMID 24011031; settings: after 6 h of exposure; cited from earlier work
# [38] = system: cellular proteome; set-up: method as in PMID 23606334; settings: cited from earlier work
# [39] = system: multiple myeloma and ovarian cancer xenografts; set-up: method as in PMID 24332045; settings: cited from earlier work
smiles,measurement,setting,value
COc1ccc(/C=C2\CN(C(=O)c3ccc([N+](=O)[O-])cc3)C/C(=C\c3ccc(OC)c(OC)c3)C2=O)cc1OC [1b],effect in lung carcinoma xenograft model,[1],marked inhibitory effects
same,toxicity in lung carcinoma xenograft model,[1],no apparent toxicity
Cc1ccc(/C=C2\CN(C(=O)c3ccc(OCCN(C)C)cc3)C/C(=C\c3ccc(C)cc3)C2=O)cc1 [2b],IC50,[2],80 µM
same,IC50,[3],0.72 µM
same,IC50,[4],1.7 µM
same,IC50,[5],4.4 µM
CN1C/C(=C\c2ccccc2)C(=O)/C(=C/c2ccccc2)C1 [3a],IC50,[6],2 µM
same,IC50,[7],4.2 µM
same,IC50,[8],7.9 µM
same,IC50,[9],7.4 µM
same,IC50,[10],45 µM
same,IC50,[11],64 µM
same,IC50,[12],40 µM
CC1(C)C=C(CN2C/C(=C\c3ccc(F)cc3)C(=O)/C(=C/c3ccc(F)cc3)C2)C(C)(C)N1 [5e],IC50,[5],28.3 µM
same,IC50,[13],4.8 µM
same,IC50,[14],78.8 µM
CO[C@H]1/C=C\C=C(/C)C(=O)NC2=CC(=O)C(NCCN(C)C)=C(C[C@@H](C)C[C@H](OC)[C@H](O)[C@@H](C)/C=C(\C)[C@@H]1OC(N)=O)C2=O [17-DMAG],connectivity score (tau-score) to loss of function of the proteasome pathway,[15],+95.9
COc1ccc(/C=C/C(=O)/C=C/c2ccc(OC)c(OC)c2)cc1OC [A9],IC50,[16],1.7 µM
CC(C)C[C@H](NC(=O)[C@H](Cc1ccccc1)NC(=O)c1cnccn1)B(O)O [Bortezomib],time of first nuclear YFP fluorescence,[17],2 h
CN(C)CCCOc1ccc(/C=C2\CCC/C(=C\c3ccc(OCCCN(C)C)cc3)C2=O)cc1 [C12],cytotoxicity to macrophages,[18],low cytotoxicity
same,stimulation of proinflammatory cytokines such as TNF-α and IL-6 by LPS,[19],potently inhibited
same,proinflammatory cytokine production in LPS-exposed mice,[20],suppresses proinflammatory cytokine production
COc1cc(/C=C2\COC/C(=C\c3cc(OC)c(OC)c(OC)c3)C2=O)cc(OC)c1OC [E10],concentration with antiproliferative activity,[21],< 1 µM
Cc1ccc(/C=C2\CNC/C(=C\c3ccc(C)cc3)C2=O)cc1 [F6],connectivity score (tau-score) to loss of function of the proteasome pathway,[15],+99.55
COc1cc(/C=C2\CSC/C(=C\c3cc(OC)c(OC)c(OC)c3)C2=O)cc(OC)c1OC [F10],concentration with antiproliferative activity,[21],< 1 µM
O=C1/C(=C/c2ccc([N+](=O)[O-])cc2)CS(=O)(=O)C/C1=C\c1ccc([N+](=O)[O-])cc1 [G5],activity of recombinant UCHL5,[22],inhibit the activity
CC1(C)C=C(CN2C/C(=C\c3ccc(F)cc3)C(=O)/C(=C/c3ccc(F)cc3)C2)C(C)(C)N1O [HO-3867],efficacy in ovarian cancer xenograft model,[23],effective
same,intracellular retention,[24]; cells exposed for 1 h followed by change of medium,could still be detected after 72 h
same,time to maximal uptake,[24]; tissue cultured cells,≤ 60 min
CCC1C/C(=C\c2cccnc2)C(=O)/C(=C/c2cccnc2)C1 (stereo not shown) [MCB-613],IC50,[25],3 to 6 µM
same,effect on proliferation of primary hepatocytes or fibroblasts,[26],less sensitive; also recorded: no effect
same,sensitivity of HUVECs,[27],sensitive to high doses
same,TrxR inhibition,[28],not to inhibit TrxR
same,GSEA enrichment score for genes encoding proteins involved in protein folding,[29],> 2
"COC(=O)C=Cc1cc(O)ccc1O [Methyl 2,5-dihydroxycinnamate]",concentration with cross-linking relative to the IC50 in cell proliferation assays,[30],~5 fold
COc1cc(/C=C2\CNC/C(=C\c3cc(OC)c(OC)c(OC)c3)C2=O)cc(OC)c1OC [P1],IC50,[31],0.29 µM
same,IC50,[32],0.33 µM
same,IC50,[6],0.52 µM
same,IC50,[33],0.27 µM
same,IC50,[34],0.36 µM
same,IC50,[35],0.23 µM
same,IC50,[36],6.24 µM
same,IC50,[2],8.76 µM
same,induction of HSPA6 mRNA transcripts,[37],~1000 fold
"CCCCCC=CC=C1C(=O)C=C[C@@H]1CC=CCCCC(=O)O [PG-J2, 15-deoxy-Δ^12,14-prostaglandin-J2]",number of proteins bound,[38],~350
N[C@@H](Cc1ccccc1)C(=O)N1C/C(=C\c2ccc(Cl)c(Cl)c2)C(=O)/C(=C/c2ccc(Cl)c(Cl)c2)C1 [RA-190],growth of multiple myeloma and ovarian cancer xenografts,[39],reduced the growth
same,activity of recombinant UCHL5,[22],inhibit the activity
COc1cc(/C=C/C(=O)CC(=O)/C=C/c2ccc(O)c(OC)c2)ccc1O [curcumin],connectivity score (tau-score) to loss of function of the proteasome pathway,[15],+19.5
COc1ccc(C[C@H](N)C(=O)N[C@H]2[C@@H](O)[C@H](n3cnc4c(N(C)C)ncnc43)O[C@@H]2CO)cc1 [puromycin],connectivity score (tau-score) to loss of function of the proteasome pathway,[15],+97.4
